Measured values reported in PubChem BioAssay (NCI).
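How tested: cells in 96-well plates exposed to compound for 48 hours at five concentrations. TGI denotes the concentration required for complete inhibition of growth.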

Key:
Assay in all cases: growth of human tumour cells (NCI), 48 h
MALME-3M melanoma = tested on: MALME-3M melanoma
NCI-H226 lung = tested on: NCI-H226 lung
SK-OV-3 ovarian = tested on: SK-OV-3 ovarian
SK-MEL-2 melanoma = tested on: SK-MEL-2 melanoma
CCRF-CEM leukemia = tested on: CCRF-CEM leukemia
LOX IMVI melanoma = tested on: LOX IMVI melanoma
OVCAR-8 ovarian = tested on: OVCAR-8 ovarian
CAKI-1 renal = tested on: CAKI-1 renal
COLO 205 colon = tested on: COLO 205 colon
HOP-92 NSCLC = tested on: HOP-92 NSCLC
NCI-H460 lung = tested on: NCI-H460 lung
HS 578T breast = tested on: HS 578T breast
HT29 colon = tested on: HT29 colon
ACHN renal = tested on: ACHN renal
SN12C renal = tested on: SN12C renal
A498 renal = tested on: A498 renal
SF-539 CNS = tested on: SF-539 CNS

SMILES | TGI (MALME-3M melanoma) | TGI (NCI-H226 lung) | TGI (SK-OV-3 ovarian) | TGI (SK-MEL-2 melanoma) | TGI (CCRF-CEM leukemia) | TGI (LOX IMVI melanoma) | TGI (OVCAR-8 ovarian) | TGI (CAKI-1 renal) | TGI (COLO 205 colon) | TGI (HOP-92 NSCLC) | TGI (NCI-H460 lung) | TGI (HS 578T breast) | TGI (HT29 colon) | TGI (ACHN renal) | TGI (SN12C renal) | TGI (A498 renal) | TGI (SF-539 CNS)
c1ccc2oc(-c3ccc(-c4nc5ccccc5o4)c4c3CC4)nc2c1 | > 100 µM | > 100 µM | > 100 µM | > 100 µM | > 100 µM | > 100 µM | > 100 µM | > 100 µM | > 100 µM | > 100 µM | > 100 µM | > 100 µM | > 100 µM | > 100 µM | > 100 µM | > 100 µM | > 100 µM
CC(=O)NC1C(OCc2ccccc2)OC(CO)C(O)C1OC(C)C(=O)NC(C)C(=O)NC(CCC(=O)NCCCCNc1c2ccccc2nc2cccc([N+](=O)[O-])c12)C(N)=O (stereo not drawn) | 0.131 µM | 0.43 µM | 3.55 µM | 0.393 µM | 0.578 µM | 0.548 µM | 0.166 µM | 0.307 µM | 0.0506 µM | 0.101 µM | 0.0363 µM | 0.562 µM | 0.0362 µM | 0.0664 µM | 0.313 µM | 0.297 µM | 0.264 µM
Oc1[nH]c2ccccc2c1N=NC(=S)Nc1ccccc1Cl | 21.8 µM | 53 µM | 35.5 µM | 64.8 µM | 49.9 µM | 27.4 µM | 17.9 µM | 8.78 µM | > 100 µM | 56.2 µM | 52.2 µM | 56.1 µM | 21.9 µM | 17.2 µM | > 100 µM | 35.4 µM | 7.86 µM
CC(C)=CCN1CC(C)C(=O)Nc2ccccc21 (stereo not drawn) | > 100 µM | > 100 µM | > 100 µM | > 100 µM | > 100 µM | > 100 µM | > 100 µM | > 100 µM | > 100 µM | > 100 µM | > 100 µM | > 100 µM | > 100 µM | > 100 µM | > 100 µM | > 100 µM | > 100 µM
